Measurements published in patent EP4685142A1, “TRIAZINE COMPOUND AND USE THEREOF” (Chengdu Zenitar Biomedical Technology Co., Ltd., priority 2023, dated 2024).
Read-outs that look alike come from different tables or passages of the source.

Legend:
[1] = tested on: LPS-induced mice; assay: LPS-induced mouse model, survival; format: in vivo, Balb/c mice; details: for 72h Survival rate: 1 h before 10 mg/kg LPS i.p.
[2] = tested on: IL-1β in human PBMC cells; assay: Inhibitory activity on IL-1β in human PBMC cells (LPS + Nigericin, ELISA); format: cell-based
Description: 2. Determination of inhibitory activity of compounds on IL-1β in human PBMC cells
Human peripheral blood mononuclear cells (PBMCs) were taken and cultured overnight in RPMI 1640 culture medium containing 10% FBS and antibiotics before stimulation. On the second day, the culture medium was replaced with a serum-reduced culture medium, the grown cells were stimulated for 3 h with LPS at a working concentration of 1 µg/mL, stimulated for 40 min with a drug, and then stimulated for 40 min with Nigericin at a concentration of 10 µM, the cell supernatant was harvested, and the yield of IL-1β was detected by ELISA.
The experimental results are shown in Table 3: Table 3 Inhibitory effect of compounds on IL-1β in PBMC cells

[3] = target: T1, NLRP3 inflammasome (Homo sapiens, UniProt Q96P20); assay: Inhibitory activity of NLRP3 inflammasome in human monocytes (THP-1 cells, LPS + Nigericin, IL-1β ELISA); format: cell-based
T1 construct: host or cells: THP-1 cells
T1 sequence (Q96P20 whole entry): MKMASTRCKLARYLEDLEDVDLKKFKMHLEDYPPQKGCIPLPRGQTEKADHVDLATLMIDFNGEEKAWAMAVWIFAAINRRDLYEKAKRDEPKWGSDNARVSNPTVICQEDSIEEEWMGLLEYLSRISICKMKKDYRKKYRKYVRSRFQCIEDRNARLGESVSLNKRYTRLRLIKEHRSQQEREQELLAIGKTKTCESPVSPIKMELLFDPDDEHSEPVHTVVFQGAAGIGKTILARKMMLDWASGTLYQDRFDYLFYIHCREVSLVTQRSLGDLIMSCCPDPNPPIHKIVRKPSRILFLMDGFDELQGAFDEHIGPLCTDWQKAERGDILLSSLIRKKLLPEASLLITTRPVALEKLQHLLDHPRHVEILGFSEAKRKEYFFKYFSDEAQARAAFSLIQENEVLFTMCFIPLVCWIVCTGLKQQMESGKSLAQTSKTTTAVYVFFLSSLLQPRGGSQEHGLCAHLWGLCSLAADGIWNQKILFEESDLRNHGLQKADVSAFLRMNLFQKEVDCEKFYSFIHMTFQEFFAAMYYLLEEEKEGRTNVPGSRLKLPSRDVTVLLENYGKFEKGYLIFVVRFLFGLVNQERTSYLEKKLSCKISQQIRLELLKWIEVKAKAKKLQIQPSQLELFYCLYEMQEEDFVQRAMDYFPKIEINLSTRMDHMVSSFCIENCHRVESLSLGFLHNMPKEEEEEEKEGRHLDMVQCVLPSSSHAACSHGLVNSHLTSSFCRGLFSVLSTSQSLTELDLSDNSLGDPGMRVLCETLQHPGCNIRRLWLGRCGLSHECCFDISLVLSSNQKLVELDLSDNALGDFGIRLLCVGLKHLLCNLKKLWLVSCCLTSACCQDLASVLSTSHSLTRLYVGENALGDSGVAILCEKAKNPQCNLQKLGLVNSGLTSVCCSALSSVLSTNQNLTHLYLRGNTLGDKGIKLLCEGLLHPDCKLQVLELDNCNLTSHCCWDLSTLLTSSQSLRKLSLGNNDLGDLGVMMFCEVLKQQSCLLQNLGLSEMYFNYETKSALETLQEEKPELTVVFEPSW
Outline: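 THP-1 cells differentiated overnight with 10 µM PMA at 37°C and 5% CO2, then primed 3 h with 1 µg/mL LPS in Opti-MEM. Compound applied for 40 min, followed by 40 min with 10 µM nigericin. IL-1β in supernatant measured by ELISA.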

[4] = target: T2, hERG potassium ion channel (Homo sapiens, UniProt Q12809); assay: Inhibition of hERG potassium ion channel (CHO cells stably expressing hERG, Qpatch)
T2 sequence (Q12809 whole entry): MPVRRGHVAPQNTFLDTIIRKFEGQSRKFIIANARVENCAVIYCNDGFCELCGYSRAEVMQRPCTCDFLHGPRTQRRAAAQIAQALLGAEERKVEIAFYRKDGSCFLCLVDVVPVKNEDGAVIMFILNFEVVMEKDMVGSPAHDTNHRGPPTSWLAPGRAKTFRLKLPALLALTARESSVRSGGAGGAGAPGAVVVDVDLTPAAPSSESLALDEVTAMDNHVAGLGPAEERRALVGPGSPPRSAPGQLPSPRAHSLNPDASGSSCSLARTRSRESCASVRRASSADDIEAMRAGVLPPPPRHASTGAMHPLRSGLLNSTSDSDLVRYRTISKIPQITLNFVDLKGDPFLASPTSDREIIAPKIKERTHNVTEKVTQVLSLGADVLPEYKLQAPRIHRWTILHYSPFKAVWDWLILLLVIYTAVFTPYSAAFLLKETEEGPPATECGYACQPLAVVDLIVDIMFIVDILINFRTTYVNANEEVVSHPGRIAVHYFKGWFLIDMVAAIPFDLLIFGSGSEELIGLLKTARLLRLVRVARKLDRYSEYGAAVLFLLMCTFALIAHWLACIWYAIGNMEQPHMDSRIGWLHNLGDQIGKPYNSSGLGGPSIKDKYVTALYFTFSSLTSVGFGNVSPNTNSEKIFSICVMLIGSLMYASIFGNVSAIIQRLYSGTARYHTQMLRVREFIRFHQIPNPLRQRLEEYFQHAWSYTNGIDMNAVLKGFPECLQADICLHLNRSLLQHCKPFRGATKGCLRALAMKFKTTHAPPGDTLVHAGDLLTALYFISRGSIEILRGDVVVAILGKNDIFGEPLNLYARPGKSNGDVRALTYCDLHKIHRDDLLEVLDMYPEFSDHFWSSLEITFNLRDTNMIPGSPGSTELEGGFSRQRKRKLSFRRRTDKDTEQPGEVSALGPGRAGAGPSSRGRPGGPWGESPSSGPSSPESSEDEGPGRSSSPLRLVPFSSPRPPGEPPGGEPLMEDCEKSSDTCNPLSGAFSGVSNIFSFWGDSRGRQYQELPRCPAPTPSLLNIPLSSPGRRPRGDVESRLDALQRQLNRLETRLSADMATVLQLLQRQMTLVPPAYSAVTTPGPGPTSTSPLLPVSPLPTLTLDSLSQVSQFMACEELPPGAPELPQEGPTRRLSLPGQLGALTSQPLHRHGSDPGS
Description: (§1) Inhibition experiment of compounds on hERG potassium ion channel
(§2) Cell culture and treatment: CHO cells stably expressing hERG were cultured in cell culture flasks and incubated in a 5% CO2 incubator at 37°C. When a cell density reached 60%-80%, the cell culture medium was aspirated, washed once with PBS, and then digested with Detachin. After digestion, the grown cells were neutralized in the cell culture medium, and then centrifuged, the supernatant was aspirated, the cell culture medium was added again to resuspend the grown cells, and the cell density was adjusted to 2-5×10^6 cells/mL for later use.
(§3) Compound preparation: the compound stock solution was diluted in 100% DMSO, that is, 10 µL compound stock solution was serially diluted in 20 µL DMSO by 3 folds to obtain six concentrations. Six concentrations of the compound (4 µL for each concentration) were diluted in 396 µL extracellular fluid by 100 folds to obtain six intermediate concentrations. Six intermediate concentrations of the compound (80 µL for each concentration) were diluted in 320 µL extracellular fluid by 5 folds to obtain final concentrations to be tested. […] DMSO in a final test concentration was not more than 0.2%, and DMSO at this concentration had no effect on the hERG potassium channel. The entire dilution process for compound preparation was performed using Bravo instrument.
(§4) Electrophysiological recording process: the processes of single-celled high-impedance sealing and whole-cell mode formation were all automatically completed by Qpatch instrument, under the whole-cell recording mode, the cells were clamped at -80 mV, before 5-second + 40 mV depolarization stimulus, the cells were given 50-millisecond - 50 mV pre-voltage, followed by repolarization to -50 mV for 5 seconds, and then returning to -80 mV. The voltage stimulus was given every 15 seconds, after 2 minutes of recording, extracellular fluid was recorded for 5 min, and then a drug was administrated, started from a lowest test concentration, each test concentration of the compound was given for 2.5 minutes, after all concentrations were given consecutively, a positive control compound Cisapride (3 µM) was given. At least 3 cells were tested for each concentration (n≥3).
(§5) Data processing: data analysis and processing were performed using GraphPad Prism 5.0 and Excel software. IC50 values of the compounds were calculated by fitting with the following equation using GraphPad Prism 5 software: Y = Bottom + (Top−Bottom)/(1+10^(∧)((LogIC50−X)*HillSlope)); [formula] where X is the Log value of the test sample concentration, Y is an inhibition percentage at a corresponding concentration, and Bottom and Top are the minimum and maximum inhibition percentages, respectively.

[5] = Pharmacokinetic evaluation in Balb/c mice; format: in vivo
Source text: 4. Pharmacokinetic evaluation of compounds in Balb/c mice
Experimental purpose: to understand pharmacokinetic properties of the compounds.
Experimental basis: Technical Guidelines for Nonclinical Pharmacokinetic Studies of Chemical Drugs, 2014.
Experimental protocol: the pharmacokinetic properties of the compounds were investigated via intravenous administration and intragastric administration in Balb/c mice.
The blood drug concentration was quantitatively analyzed by LC-MS/MS, and pharmacokinetic parameters were calculated, such as peak concentration (Cmax), area under the concentration-time curve (AUC(0-t)), half-life (T1/2), clearance (CL), volume of distribution at steady state (Vdss), and bioavailability (F).
The results of pharmacokinetic evaluation are shown in Table 5 below: Table 5 Pharmacokinetic test results of compounds in Balb/c mice

[6] = target: T2, hERG potassium ion channel
Description: as §1, §2, §3, §4, §5

[7] = In vivo brain-to-plasma ratio in mice; details: for Brain / Plasma: male mice, oral 10 mg/kg
[8] = In vivo distribution of cerebrospinal fluid and plasma; details: intravenous 5 mg/kg, n=1
Description: Evaluation of in vivo distribution of cerebrospinal fluid and plasma after compound administration
Experimental procedure: the compound was weighed, followed by adding a small amount of DMSO and then adding a sodium chloride solution for injection, to prepare a 5 mg·mL^-1 compound solution for administration. […] Standard curve range: 1-1000 ng·mL^-1.

[9] = human PBMC, LPS 1 µg/mL 3 h, drug 40 min, Nigericin 10 µM 40 min, IL-1β ELISA, read-out: IC50
[10] = 50 mg/kg, First cage (6 mice for Compound 3, 5 mice for Compound 4)
[11] = 50 mg/kg, Second cage (6 mice for Compound 3, 5 mice for Compound 4)
[12] = male, Balb/c, mouse, in vivo, po, 5 mg/kg
[13] = male, mouse, brain/plasma, po, 10 mg/kg
[14] = male, mouse, plasma, po, 10 mg/kg

CC(C)(O)c1coc(S(=O)(=O)NC(=O)Nc2c3c(cc4c2CCC4)CCC3)c1 [MCC950, reference compound]
72h Survival rate ([1]; 25 mg/kg oral): 60% | survival status of mice (mice alive) 12h ([1]; 25 mg/kg, First cage (5 mice)): 5 | survival status of mice (mice alive) 24h ([1]; 25 mg/kg, First cage (5 mice)): 5 | survival status of mice (mice alive) 36h ([1]; 25 mg/kg, First cage (5 mice)): 4 | survival status of mice (mice alive) 48h ([1]; 25 mg/kg, First cage (5 mice)): 4 | survival status of mice (mice alive) 72h ([1]; 25 mg/kg, First cage (5 mice)): 4 | survival status of mice (mice alive) 12h ([1]; 25 mg/kg, Second cage (5 mice)): 5 | survival status of mice (mice alive) 24h ([1]; 25 mg/kg, Second cage (5 mice)): 4 | survival status of mice (mice alive) 36h ([1]; 25 mg/kg, Second cage (5 mice)): 4 | survival status of mice (mice alive) 48h ([1]; 25 mg/kg, Second cage (5 mice)): 2 | survival status of mice (mice alive) 72h ([1]; 25 mg/kg, Second cage (5 mice)): 2 | IC50 [2, 9]: 7.81 nM

CN1CCC[C@@H](Nc2nnc(-c3ccc4sccc4c3O)n(C)c2=O)C1 [Compound 4, (R)-3-(4-hydroxybenzo[b]thiophen-5-yl)-4-methyl-6-((1-methylpiperidin-3-yl)amino)-1,2,4-tr iazin-5(4H)-ketone]
72h Survival rate ([1]; 25 mg/kg oral): 80% | survival status of mice (mice alive) 12h ([1]; 25 mg/kg, First cage (5 mice)): 5 | survival status of mice (mice alive) 24h ([1]; 25 mg/kg, First cage (5 mice)): 5 | survival status of mice (mice alive) 36h ([1]; 25 mg/kg, First cage (5 mice)): 5 | survival status of mice (mice alive) 48h ([1]; 25 mg/kg, First cage (5 mice)): 5 | survival status of mice (mice alive) 72h ([1]; 25 mg/kg, First cage (5 mice)): 5 | survival status of mice (mice alive) 12h ([1]; 25 mg/kg, Second cage (5 mice)): 5 | survival status of mice (mice alive) 24h ([1]; 25 mg/kg, Second cage (5 mice)): 5 | survival status of mice (mice alive) 36h ([1]; 25 mg/kg, Second cage (5 mice)): 4 | survival status of mice (mice alive) 48h ([1]; 25 mg/kg, Second cage (5 mice)): 4 | survival status of mice (mice alive) 72h ([1]; 25 mg/kg, Second cage (5 mice)): 3 | 72h Survival rate ([1]; 50 mg/kg oral): 100% | survival status of mice (mice alive) 12h [1, 10]: 5 | survival status of mice (mice alive) 24h [1, 10]: 5 | survival status of mice (mice alive) 36h [1, 10]: 5 | survival status of mice (mice alive) 48h [1, 10]: 5 | survival status of mice (mice alive) 72h [1, 10]: 5 | survival status of mice (mice alive) 12h [1, 11]: 5 | survival status of mice (mice alive) 24h [1, 11]: 5 | survival status of mice (mice alive) 36h [1, 11]: 5 | survival status of mice (mice alive) 48h [1, 11]: 5 | survival status of mice (mice alive) 72h [1, 11]: 5 | IC50 [2, 9]: 1.42 nM | IC50 ([3]; THP-1 cells, PMA, LPS 1 µg/mL 3 h, drug 40 min, Nigericin 10 µM 40 min, IL-1β ELISA, read-out: IC50): 4.21 nM | 20 uM Inhibition ratio [4]: 14.87% | AUC(0-t) [5, 12]: 16900 ng·h/mL | Cmax [5, 12]: 4610 ng/mL | half-life [5, 12]: 3 h | inhibitory effects on the hERG potassium ion channel (conclusion in words) ([6]; human): Conclusion: compounds 3, 4, 5, 9, 16, 17, 24, 30, 40, 41, 42, 43, 54 and others have weak inhibitory effects on the hERG potassium ion channel, having weaker inhibitory effect than the reference compound Ref-1. | Brain ([7]; 1 h): 1780 ng/g | Brain ([7]; 6 h): 335 ng/g | Kp at 1 h [7, 13]: 0.53 | Kp at 6 h [7, 13]: 0.25 | concentration at 1 h [7, 14]: 3340 ng/mL | concentration at 6 h [7, 14]: 1370 ng/mL

CCN1CCC[C@@H](Nc2nnc(-c3ccc4sccc4c3O)n(C)c2=O)C1 [Compound 3, (R)-6-((1-ethylpiperidin-3-yl)amino)-3-(4-hydroxybenzo[b]thiophen-5-yl)-4-methyl-1,2,4-tria zin-5(4H)-ketone]
72h Survival rate ([1]; 25 mg/kg oral): 90% | survival status of mice (mice alive) 12h ([1]; 25 mg/kg, First cage (5 mice)): 5 | survival status of mice (mice alive) 24h ([1]; 25 mg/kg, First cage (5 mice)): 5 | survival status of mice (mice alive) 36h ([1]; 25 mg/kg, First cage (5 mice)): 5 | survival status of mice (mice alive) 48h ([1]; 25 mg/kg, First cage (5 mice)): 4 | survival status of mice (mice alive) 72h ([1]; 25 mg/kg, First cage (5 mice)): 4 | survival status of mice (mice alive) 12h ([1]; 25 mg/kg, Second cage (5 mice)): 5 | survival status of mice (mice alive) 24h ([1]; 25 mg/kg, Second cage (5 mice)): 5 | survival status of mice (mice alive) 36h ([1]; 25 mg/kg, Second cage (5 mice)): 5 | survival status of mice (mice alive) 48h ([1]; 25 mg/kg, Second cage (5 mice)): 5 | survival status of mice (mice alive) 72h ([1]; 25 mg/kg, Second cage (5 mice)): 5 | 72h Survival rate ([1]; 50 mg/kg oral): 92% | survival status of mice (mice alive) 12h [1, 10]: 6 | survival status of mice (mice alive) 24h [1, 10]: 6 | survival status of mice (mice alive) 36h [1, 10]: 6 | survival status of mice (mice alive) 48h [1, 10]: 6 | survival status of mice (mice alive) 72h [1, 10]: 6 | survival status of mice (mice alive) 12h [1, 11]: 6 | survival status of mice (mice alive) 24h [1, 11]: 6 | survival status of mice (mice alive) 36h [1, 11]: 5 | survival status of mice (mice alive) 48h [1, 11]: 5 | survival status of mice (mice alive) 72h [1, 11]: 5 | IC50 ([2]; Homo sapiens, PBMC): 1.23 nM | IC50 [3]: 2.11 nM | 20 uM Inhibition ratio [4]: 38.23% | F ([5]; 5 mg/kg PO vs 5 mg/kg IV, Balb/c mice): 81.05% | clearance ([5]; mouse, in vivo, 5 mg/kg, IV, Balb/c mice): 9.67 mL/min/kg | AUC(0-t) ([5]; mouse, in vivo, 5 mg/kg, IV, Balb/c mice, read-out: AUC(0-t)): 8300 ng·h/mL | Cmax ([5]; mouse, in vivo, 5 mg/kg, IV, Balb/c mice, read-out: Cmax): 1990 ng/mL | half-life ([5]; mouse, in vivo, 5 mg/kg, IV, Balb/c mice, read-out: T1/2 (converted)): 5.4 h | Vd ([5]; mouse, in vivo, 5 mg/kg, IV, Balb/c mice, read-out: Vdss): 4.51 L/kg | AUC(0-t) ([5]; mouse, in vivo, 5 mg/kg, PO, Balb/c mice, read-out: AUC(0-t)): 6730 ng·h/mL | Cmax ([5]; mouse, in vivo, 5 mg/kg, PO, Balb/c mice, read-out: Cmax): 1010 ng/mL | half-life ([5]; mouse, in vivo, 5 mg/kg, PO, Balb/c mice, read-out: T1/2 (converted)): 4.9 h | Cerebrospinal fluid ([8]; 0.25h): 79 ng/g | Plasma ([8]; 0.25h): 781 ng/mL | Cerebrospinal fluid ([8]; 2h): 15 ng/g | Plasma ([8]; 2h): 185 ng/mL | inhibitory effects on the hERG potassium ion channel (conclusion in words) [6]: Conclusion: compounds 3, 4, 5, 9, 16, 17, 24, 30, 40, 41, 42, 43, 54 and others have weak inhibitory effects on the hERG potassium ion channel, having weaker inhibitory effect than the reference compound Ref-1. | Brain ([7]; 1 h): 761 ng/g | Plasma ([7]; 1 h): 2082 ng/mL | Brain ([7]; 6 h): 104 ng/g | Plasma ([7]; 6 h): 312 ng/mL | Kp at 1 h ([7]; mouse, brain, po, 10 mg/kg): 0.36 | Kp at 6 h ([7]; mouse, brain, po, 10 mg/kg): 0.33
